# Measurements reported in patent US20220120753A1, “METHOD FOR DETERMINING PROGNOSIS OF CANCER” (The University of Tokyo, priority 2018, published 2022).
# Where two headings read alike, the source gives them in different places.
# What was measured:
# [1] = system: ERα-dependent transcription; assay: qPCR of ERα target gene transcripts (EBAG9, GREB1) in MCF-7 cells; format: cell-based, human
# Method: (§1) Using total RNA derived from individual cells recovered over time, qPCR was carried out. […] Using total RNA prepared from the treated cells, qPCR was carried out. […] Using the nucleus extract, immunoprecipitation and immunoblotting were carried out.
# Using total RNA prepared from the cells over time, qPCR was carried out.
# (§2) Total RNA was prepared from the cells treated with various drugs, and qPCR was carried out.
# The cells were washed with PBS three times, and were then cultured in phenol red-non-added DMEM (supplemented with 5% charcoal-stripped FBS) for 72 hours.
# (§3) Quantitative RT-PCR was carried out according to the method described in Johmura et al., Molecular Cell 55: 73-84, 2014. Total RNA was extracted using ISOGEN II (Wako), and using this as a template, cDNA was synthesized using SuperScript II cDNA synthesis kit (Invitrogen). PCR amplification was carried out in a 96-well optical reaction plate, using Power SYBR Green PCR Master Mix (Applied Biosystems). The relative expression ratio of individual genes was normalized with respect to the expression level of GAPDH.
# T47D breast cancer cells = assay: T47D cells transplanted into the mammary gland fat pad of NOD/Scid mice; format: in vivo, mouse; settings: NOD/Scid mice with Fbxo22-knocked-out T47D cells treated with 4-OHT pellets, compared with mice with control cells
# Method: Representative colony images (upper view) and the results of the assay are shown. […] Ki-67-positive and cleaved caspase 3-positive cells were counted, and the counted numbers were then normalized with respect to the cell nucleus in each section. *p<0.05, ***p<0.05. […] Thereafter, the cells were treated with trypsin, were then suspended in PBS, and were then mixed with Matrigel (CORNING 354230) at a mixing ratio of 1:1. […] Six weeks later, the mice were euthanized, the tumor was then excised, and the size of the tumor was then measured. Thereafter, the tumor was fixed with formalin and was then embedded in paraffin, and an HE stain slide glass was produced. The size of a tumor was evaluated as follows: V=(length×width×height×0.5326) mm^3. All of the mice were fed under a specific pathogen-free environment, and were treated in accordance with Animal Experiment Guidelines, Graduate School of Medicine and Faculty of Medicine, The University of Tokyo.
# [2] = system: KDM4B forming a complex with ERα
# MCF-7 cells = assay: Colony formation assay, MCF-7 cells; format: cell-based, human
# Method: Representative colony images (upper view) and the results of the assay are shown. […] Ki-67-positive and cleaved caspase 3-positive cells were counted, and the counted numbers were then normalized with respect to the cell nucleus in each section. *p<0.05, ***p<0.05. The cells (5×10^2) were seeded on a 6-well plate, and were then cultured for 2 weeks. Thereafter, colonies were immobilized with methanol/acetic acid (1:1) for 15 minutes, and were then stained in 20% methanol/PBS containing 0.4% trypan blue (Sigma) for 15 minutes, followed by counting.
# [3] = system: FLAG-Fbxo22 binding to ERα
# Method: (§4) Immunoprecipitation and immunoblotting were carried out according to the method described in Johmura et al., Molecular Cell 55: 73-84, 2014. The cells were dissolved in a TBSN buffer (20 mM Tris-Cl (pH 8.0), 150 mM NaCl, 0.5% NP-40, 5 mM EGTA, 1.5 mM EDTA, and 0.5 mM Na3VO4). The obtained cell lysate was centrifuged at 4° C. at 15,000×g for 20 minutes, and was then used in immunoprecipitation using an antibody.
# T47D cells = assay: Colony formation assay, T47D cells; format: cell-based, human; settings: Fbxo22-knocked-out T47D cells in the presence of E2 and 4-OHT, compared with control cells
# Method: The cells (5×10^2) were seeded on a 6-well plate, and were then cultured for 2 weeks. Thereafter, colonies were immobilized with methanol/acetic acid (1:1) for 15 minutes, and were then stained in 20% methanol/PBS containing 0.4% trypan blue (Sigma) for 15 minutes, followed by counting.
# ERα [4] = assay: ChIP-Seq analysis of ERα binding in MCF-7 cells; format: cell-based, human; settings: for ERα accumulation peaks detected: 2 hours, E2 line = E2 (10 nM), 4-OHT line = E2+4-OHT
# Description: Thereafter, DNA was extracted using a DNA purification column.
# [5] = system: CFP-LacER, YFP-SRC-1 and FLAG-KDM4B foci; settings: in the presence of E2 and 4-OHT
# Method: (§5) The obtained cells were immunostained with anti-FLAG antibodies. Representative images are shown.
# U205-LacO-I-SceI-TetO cells were cultured in a glass bottom dish (Iwaki) on the stage of BZ-9000 (Keyence) equipped with an environmental chamber (Keyence). The microscopic image was analyzed with BZ-9000 software.
# In order to immobilize ERα on a Lac operator array stably incorporated into living cells, using a CFP-tagged lac receptor-ERα chimeric protein (CFP-LacER), accumulation of YFP-SRC-1 and KDM4B in an ERα-immobilized position was examined.
# [6] = system: ERα complex with KDM4B and SRC-3
# Method: as §1, §5, §2, §4
# Regarding immunoprecipitation of ERα and KDM4B, a nuclear extract was prepared according to the method described in Hirokawa et al., Cancer Res. 74: 3880-3889, 2014. Cell pellets were suspended in buffer A (10 mM Hepes-KOH pH 7.9, 10 mM KCl, 1.5 mM MgCl2, 0.5 mM DTT, 0.5 mM PMSF, and protease inhibitor cocktail (Nakalai Tesque)) having five times the volume of the cell pellets, and the suspension was then incubated on ice for 5 minutes. Thereafter, the cells were centrifuged at 4° C. at 500×g for 5 minutes, and the obtained cell pellets were then suspended in buffer A having two times the volume of the cell pellets for homogenization. The homogenized cell suspension was centrifuged at 4° C. at 4,000×g for 5 minutes, and a cell nucleus was recovered in a precipitate. To the recovered nucleus, an equal amount of buffer B (20 mM Hepes-KOH pH 7.9, 600 mM KCl, 1.5 mM MgCl2, 0.2 mM EDTA, 25% glycerol, 0.5 mM DTT, 0.5 mM PMSF, and protease inhibitor cocktail) was added and suspended, and the obtained mixture was then blended at 4° C. for 30 minutes, using a rotator. The nuclear extract was centrifuged at 4° C. at 16,000×g for 15 minutes, and was then recovered in a supernatant. The nuclear extract was dialyzed against buffer C (20 mM Hepes-KOH pH 7.9, 100 mM KCl, 0.2 mM EDTA, 20% glycerol, 0.5 mM DTT, and 0.5 mM PMSF). After completion of the dialysis, the nuclear extract was centrifuged at 4° C. at 16,000×g for 30 minutes, and the remaining precipitate was then eliminated.
# A protein (20 to 50 μg) was separated from the total cell lysate by SDS-PAGE, and was then transferred into a PVDF membrane (Millipore), which was then used in immunoblotting using various types of antibodies.
# ERα [7] = settings: U2OS cells, Fbxo22 not expressed
# Method: as §5, §3
# [8] = system: ERα-positive breast cancer; settings: cited from earlier work
# [9] = system: ERα-positive/HER2-negative breast cancer; assay: Relapse-free survival of ERα-positive/HER2-negative breast cancer patients stratified by Fbxo22; format: in vivo, human; settings: patient group that had undergone the TAM treatment
# Description: FIGS. 9A and 9B show representative immunohistochemical staining images of a normal mammary gland (FIG. 9A), an Fbxo22-positive mammary gland of human breast cancer (FIG. 9B, left view), and an Fbxo22-negative mammary gland (FIG. 9B, right view). Scale bar: 20 μm. FIGS. 9C to 9F show Kaplan-Meier survival curves formed by stratifying ERα-positive/HER2-negative breast cancer (FIG. 9C), Luminal A (low Ki-67) breast cancer (FIG. 9D), lymph node metastasis-negative breast cancer (FIG. 9E), and tamoxifen-administered breast cancer (FIG. 9F) by the expression of Fbxo22. The P value and the hazard ratio were calculated according to a log-rank test.
# Formalin fixing, paraffin embedding, core needle aspiration biopsy cytology panels, and the clinical data thereof, which were derived from 163 cases of continuously treated T2 (diameter: 2 to 5 cm) ERα-positive/HER-2-negative primary breast cancers, were obtained from patients who underwent surgery at St. Marianna University School of Medicine Hospital from 2005 to 2009. […] A tissue section was incubated with anti-Fbxo22 antibody (GTX117774, GeneTex) used as a primary antibody, which was diluted to 1:200, and was then detected using an HRP-polymer-labeled secondary antibody (Histofine Simple Stain MAX PO (multi), Nichirei, Japan). […] The Fbxo22-positive cells were evaluated according to a blind test conducted by two pathologist. […]
# ERα complex with KDM4B and SRC-3, sequence (P03372 whole entry, one chain of several): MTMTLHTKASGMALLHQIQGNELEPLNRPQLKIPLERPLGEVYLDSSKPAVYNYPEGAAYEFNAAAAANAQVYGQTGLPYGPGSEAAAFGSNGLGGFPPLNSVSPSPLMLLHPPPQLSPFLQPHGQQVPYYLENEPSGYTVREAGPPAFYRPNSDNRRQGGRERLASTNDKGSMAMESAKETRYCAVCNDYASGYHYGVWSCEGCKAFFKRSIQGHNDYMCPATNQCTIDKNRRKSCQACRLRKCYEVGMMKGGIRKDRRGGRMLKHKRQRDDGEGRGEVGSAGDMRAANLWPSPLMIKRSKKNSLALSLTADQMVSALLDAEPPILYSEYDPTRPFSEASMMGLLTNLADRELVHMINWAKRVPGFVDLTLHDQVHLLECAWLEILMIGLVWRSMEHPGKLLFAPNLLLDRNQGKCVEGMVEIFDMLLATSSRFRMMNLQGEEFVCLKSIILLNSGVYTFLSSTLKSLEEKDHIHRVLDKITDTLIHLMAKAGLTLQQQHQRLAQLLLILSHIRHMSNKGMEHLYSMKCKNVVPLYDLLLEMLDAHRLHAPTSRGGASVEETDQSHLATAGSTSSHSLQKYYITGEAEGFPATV
# CFP-LacER, YFP-SRC-1 and FLAG-KDM4B foci, sequence (P03372 311-547 limits assumed): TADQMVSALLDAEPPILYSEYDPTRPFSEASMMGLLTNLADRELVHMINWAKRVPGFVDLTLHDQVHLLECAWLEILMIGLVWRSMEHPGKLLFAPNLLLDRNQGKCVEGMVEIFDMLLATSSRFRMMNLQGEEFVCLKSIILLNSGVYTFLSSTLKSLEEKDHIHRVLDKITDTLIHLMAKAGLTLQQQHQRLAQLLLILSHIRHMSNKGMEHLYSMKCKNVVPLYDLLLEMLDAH
# FLAG-Fbxo22 binding to ERα, sequence (P03372 whole entry): as the sequence (P03372 whole entry, one chain of several) above
# KDM4B forming a complex with ERα, sequence (P03372 whole entry, one chain of several): as above
molecule,measurement,setting,value
4-hydroxytamoxifen [4-OHT],antagonistic activity of 4-OHT on transcription of EBAG9 and GREB1,[1]; Fbxo22-depleted MCF-7 cells,suppressed
same,time after addition of 4-OHT at which transcript levels of GREB1 and EBAG1 became minimum,"[1]; MCF-7, E2-depleted 72 h, E2 10 nM, 4-OHT 100 nM added 6 hours after E2",Six
same,transcription of EBAG9 and GREB1,"[1]; control MCF-7 cells stimulated by E2, treated with 4-OHT",strongly suppressed
same,tumor growth (tumor volume),T47D breast cancer cells,clear increase
same,ubiquitination of KDM4B forming a complex with ERα,[2],recovered
same,proliferation-suppressing effect of 4-OHT,MCF-7 cells; Fbxo22-depleted MCF-7 cells,reduced
same,proliferation-suppressing effect of 4-OHT,MCF-7 cells; Fbxo22-depleted MCF-7 cells with Fbxo22 re-expressed (FLAG-Fbxo22),recovered
same,proliferation (colony formation) in the presence of E2,"MCF-7 cells; control MCF-7 cells, E2 10 nM, 4-OHT 100 nM",completely suppressed
same,FLAG-Fbxo22 binding to ERα,[3],recovered (increased)
same,colony formation,T47D cells,significantly promoted
same,ERα accumulation peaks detected,ERα [4]; Fbxo22-depleted MCF-7 cells,"19,924"
same,interaction of ERα with a target region,"ERα [4]; MCF-7 cells, E2+4-OHT versus E2",does not affect
same,accumulation of ERα in the promoter regions of GREB1 and IGFBP4 genes,"ERα [4]; control and Fbxo22-depleted MCF-7 cells, E2 line = E2, 4-OHT line = E2+4-OHT",maintained
same,ERα accumulation peaks detected,ERα [4]; wild-type/control MCF-7 cells,"26,751"
same,colocalization of FLAG-KDM4B with CFP-LacER and YFP-SRC-1,[5]; Fbxo22-depleted cells,colocalized
same,colocalization of FLAG-KDM4B with CFP-LacER and YFP-SRC-1,[5]; control cells,not observed
same,"cofactor dynamics (KDM4B/SRC-3 dissociation, N-CoR interaction with ERα)","[6]; Fbxo22-depleted MCF-7 cells, E2 then 4-OHT",not observed
same,complex of ERα with KDM4B and SRC-3,"[6]; control MCF-7 cells stimulated by E2, then 4-OHT",dissociated
same,antagonistic activity of 4-OHT,"ERα [7]; wild-type ERα expressed, stimulated by E2",suppressed
same,antagonistic activity of 4-OHT,ERα [7]; Δ44 ERα expressed,observed
"CC/C(=C(\c1ccccc1)c1ccc(OCCN(C)C)cc1)c1ccccc1 [TAM, Tamoxifen]",reduction of annual breast cancer mortality rate,[8]; TAM therapy,approximately 30%
same,early breast cancer patients with a recurrence within 15 years,[8]; patients treated by TAM,approximately 25%
same,prognosis (relapse-free survival) of Fbxo22-negative breast cancer,[9],extremely poor prognosis
